2 compounds from patent publication EP2982368A1, “Small molecule compounds displacing focal adhesion core components” (Universität Konstanz, priority 2014, dated 2016) can be followed below.

Structures are written as SMILES. “Also recorded” adds a separate entry of the source.

One series deals with T1, FAK/Paxillin (Mus musculus, UniProt P34152+Q8VI36).
T1 construct: expressed in transfected cells; host or cells: mouse fibroblasts stably expressing GFP-FAK
Put plainly: FAK/Paxillin displacement by structurally related compounds (FootLocker series, confocal microscopy). The format is cell-based. As to the method: To determine whether compounds structurally related to Mb31 and Mb36 are likewise suitable to interfere with FAK localization at focal adhesions, mouse fibroblasts stably expressing GFP-FAK were treated for 30 min with 1, 10 or 20 µM of the following compounds: trans-3-hydroxy-β-nitrostyrene (THBN), trans-4-Chloro-β-nitrostyrene (T4CN), trans-β-nitrostyrene (TBN), 4-chlorocinnamic acid (4CA), and trans-3-(4-bromothiophen-2-yl)acrylic acid (T34BA) (Figures 16 and 17). The cells were analyzed by confocal microscopy for GFP-FAK localization. DMSO treatment served as a vehicle control. […] Additional substituents at the aromatic structures, such as halogen atoms or hydroxy groups may contribute to the reactivity of the compound, but are not essential. Based on these findings, the inventors have extended their structure activity-relationship studies and synthesized additional related compounds, which, similar to Mb31, displace FAK and paxillin at concentrations below 10µM (++), displace FAK and paxillin at concentrations above 10 µM (+), or lack FAK and paxillin displacing activity (-). All these substances were then also nicknamed in the FLocker terminology, resulting in FLocker1 - FLocker24 (Table 2). Table 2: Overview of FootLocker nomenclature, their chemical notation/structure and the activity towards FAK/Paxillin displacement

The test system of series [1] is GFP-FAK mouse embryonic fibroblasts. Put plainly: MTT assay (cell viability). Type of series: cell-based. The settings on record: 5 h compound exposure. As to the method: Image J was used to automatically quantify FAK-containing focal adhesions due to local maxima of fluorescence intensity in the GFP-channel (5 to 70 pixel). The number of cells was automatically counted in the Hoechst channel. To test reproducibility of the system 40 control wells were quantified wherein four positions for each well were imaged. […] GFP-FAK mouse embryonic fibroblasts were seeded on fibronectin and incubated for 1 h with the indicated concentrations of the small compounds, respectively. […] GFP-FAK mouse embryonic fibroblasts were seeded on fibronectin and serum-starved overnight. The indicated concentrations of Mb31 were applied for 30 min. Cells were lysed and analyzed for paxillin and FAK protein level as well as FAK Tyr397 phosphorylation. […] The purified kinase domain of FAK was incubated with increasing amounts of Mb31 for 1 h at 30°C together with poly-Glu-Tyr as a FAK substrate. […] Cell viability was assessed by MTT assay. […] Migration was recorded from cells that were cultured without serum (A), with serum (B) or with serum in the presence of 3 µM Mb31 (C). […] Mouse embryonic fibroblasts (MEFs) were transfected with talin-mCherry and talin dynamics analyzed in focal adhesions using fluorescence recovery after photobleaching (FRAP). […] (C) Wound closure was microscopically analyzed and evaluated using ImageJ software. […]
In general terms: Formazan colour is commonly taken as a measure of viable cells.

T1 sequence (P34152 whole entry): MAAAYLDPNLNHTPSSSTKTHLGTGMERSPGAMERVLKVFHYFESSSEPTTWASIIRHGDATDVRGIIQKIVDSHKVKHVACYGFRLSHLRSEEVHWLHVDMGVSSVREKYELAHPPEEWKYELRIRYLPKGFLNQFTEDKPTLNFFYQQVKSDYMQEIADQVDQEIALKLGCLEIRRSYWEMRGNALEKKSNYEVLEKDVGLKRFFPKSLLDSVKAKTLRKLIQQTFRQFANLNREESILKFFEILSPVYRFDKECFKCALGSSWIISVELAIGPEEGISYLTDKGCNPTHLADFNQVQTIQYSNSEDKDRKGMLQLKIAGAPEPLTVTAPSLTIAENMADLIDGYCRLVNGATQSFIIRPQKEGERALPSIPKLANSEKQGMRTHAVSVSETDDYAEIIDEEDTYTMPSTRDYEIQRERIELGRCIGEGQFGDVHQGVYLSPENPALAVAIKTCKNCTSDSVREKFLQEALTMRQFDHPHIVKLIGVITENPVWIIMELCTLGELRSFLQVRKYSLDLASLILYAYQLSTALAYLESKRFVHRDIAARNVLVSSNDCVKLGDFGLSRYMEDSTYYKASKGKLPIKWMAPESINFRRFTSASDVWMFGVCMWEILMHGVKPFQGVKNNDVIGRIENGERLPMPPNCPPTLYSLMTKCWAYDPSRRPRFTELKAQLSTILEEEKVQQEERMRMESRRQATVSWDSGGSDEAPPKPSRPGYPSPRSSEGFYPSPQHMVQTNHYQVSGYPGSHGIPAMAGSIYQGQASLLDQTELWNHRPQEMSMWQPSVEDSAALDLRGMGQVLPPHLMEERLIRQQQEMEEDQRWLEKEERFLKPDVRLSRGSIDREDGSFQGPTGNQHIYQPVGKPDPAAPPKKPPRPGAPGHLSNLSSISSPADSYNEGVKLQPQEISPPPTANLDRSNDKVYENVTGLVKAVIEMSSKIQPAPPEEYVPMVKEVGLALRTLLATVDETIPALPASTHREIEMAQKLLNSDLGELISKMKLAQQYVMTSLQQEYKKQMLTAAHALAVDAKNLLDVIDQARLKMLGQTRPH
T1 sequence (Q8VI36 whole entry): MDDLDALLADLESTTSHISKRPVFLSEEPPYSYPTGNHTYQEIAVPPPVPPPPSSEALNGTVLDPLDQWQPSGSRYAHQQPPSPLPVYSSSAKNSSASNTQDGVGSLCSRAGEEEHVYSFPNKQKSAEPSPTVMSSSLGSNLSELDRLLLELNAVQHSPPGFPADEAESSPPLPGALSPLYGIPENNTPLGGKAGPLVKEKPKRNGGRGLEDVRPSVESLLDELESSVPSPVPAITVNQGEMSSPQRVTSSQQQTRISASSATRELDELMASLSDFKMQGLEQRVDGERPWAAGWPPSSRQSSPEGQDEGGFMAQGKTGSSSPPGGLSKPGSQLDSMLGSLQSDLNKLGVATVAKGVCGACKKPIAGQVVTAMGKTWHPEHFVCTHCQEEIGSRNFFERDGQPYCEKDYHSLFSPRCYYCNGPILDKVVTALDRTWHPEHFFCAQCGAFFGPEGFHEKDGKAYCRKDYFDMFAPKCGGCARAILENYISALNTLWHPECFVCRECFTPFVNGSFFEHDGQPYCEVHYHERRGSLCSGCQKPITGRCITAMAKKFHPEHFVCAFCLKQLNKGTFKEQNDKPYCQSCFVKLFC

`O=[N+]([O-])C=Cc1cc(Br)cs1` [FootLocker 1, 4-bromo-2-(2-nitrovinyl)thiophene]: at FAK/Paxillin, the “compounds showing the most prominent effect on protein-protein interactions at focal adhesion site” value is recorded as “most prominent effect” and the “disruption of protein-protein interactions at focal adhesion site” value is “efficiently disrupt protein-protein interactions at focal adhesion site”. The “cell viability / toxicity” value in series [1] (listed as Mb31) is reported as “do not impair cell viability; also recorded: minor toxicity”.

As for `Nc1ccc(SC(C[N+](=O)[O-])c2ccc(Cl)cc2)cc1` (stereo not drawn) [FootLocker 2, 4-{[1-(4-chlorophenyl)-2-nitroethyl]thio}aniline], at FAK/Paxillin, the “compounds showing the most prominent effect on protein-protein interactions at focal adhesion site” value is on record as “most prominent effect” and the “disruption of protein-protein interactions at focal adhesion site” value is on record as “efficiently disrupt protein-protein interactions at focal adhesion site”. For the same compound, in series [1], the “cell viability / toxicity” value is “do not impair cell viability”.
